Four compounds from patent US5108996A, “19-nor-3-keto steroids” (Roussel Uclaf, priority 1989, dated 1992) can be followed below.

For assay [1], the system named is lipid peroxidation (MDA formation) in rat liver microsomes. In words: MDA formation triggered non-enzymatically by ferrous sulfate in rat liver microsomes (antioxidant activity). As to conditions: 15 min 37° C. Type of assay: biochemical, S-D rat. How it is done:
(§1) The antioxidant activity was tested in vitro by the test of formation of malondialdehyde (MDA) which measures lipid peroxidation triggered: either a) non-enzymatically by ferrous sulfate, in 1) brain homogenates, or 2) rat liver microsomes or b) enzymatically by NADPH and carbon tetrachloride in rat liver microsomes.
1.2-MDA formation was measured on liver microsomes of S-D rats (200 g)
prepared from the fraction sedimented at 100,000 G of a liver homogenate
in a sucrose buffer, of which the fraction remaining insoluble at 100,000
G in 100 mM sodium pyrophosphate buffer pH 7.4 was used and which was
homogenized in 100 mM sodium phosphate buffer pH 7.4 containing 20% of
glycerol and then stored at -80° C.
The microsomes were incubated for 15 minutes at 37° C. in 1 ml containing 35 mM Tris-HCl buffer/0.1M KCl pH 7.4, 1 mg of microsomal protein, 5 microliters of ethanol containing or not containing the test product and 250 microliters of ascorbate solution in the Tris buffer (0.5 mM final), after the addition of 250 microliters of ferrous sulfate prepared immediately before use in the Tris buffer ([…]). The reaction was stopped by adding 2 ml of a 1M solution of trichloroacetic acid in 0.25M hydrochloric acid containing 0.4% of thiobarbituric acid. The mixture was heated to 85° C. for 25 minutes, cooled and centrifuged for 15 minutes at 3500 rpm, and the OD of the supernatant fraction was then read at 535 nm. The reaction blanks in the absence of Fe^++ were performed at the same time and the percentage inhibition was calculated as above.

Assay [2] shares this test system. In words: MDA formation triggered enzymatically by NADPH and carbon tetrachloride in liver microsomes of phenobarbital-pretreated rats (antioxidant activity). As to conditions: NADPH/CCl4. Type of assay: biochemical. Here is the method:
as §1
2-MDA formation was measured on liver microsomes of rats pretreated with phenobarbital (80 mg/kg in 3 i.p. injections), prepared as described above. The microsomes were incubated for 15 minutes at 37° C. in 1 ml containing 0.1M pH 7.4 phosphate buffer, 1 mg of microsomal protein, 5 microliters of ethanol containing or not containing the test product and 5 microliters of carbon tetrachloride (5.5 mM final) after the addition of 50 microliters of NADPH solution in the phosphate buffer (1 mM final). The reaction was stopped and the assay was then performed under the conditions described above.
For orientation: Microsomes from liver hold many membrane-bound enzymes, among them those of drug oxidation.

In assay [3] the test system is lipid peroxidation (MDA formation) in brain homogenates. The assay can be described thus: MDA formation triggered non-enzymatically by ferrous sulfate in rat brain homogenates (antioxidant activity). Type of assay: biochemical, S-D rat. As to conditions: brain homogenate, 60 min 37° C. Here is the method:
as §1
1.1-MDA formation was measured on 10-fold diluted (V/V) homogenates of brains of S-D (200 g), prepared in Krebs buffer pH 7.4 by the conditions described in J. Biol. Chem. Vol., 262 (1987), p. 10438 to 10440. 1 ml of homogenate was incubated for 60 minutes at 37° C. in the presence of 25 microliters of ethanol or water or a mixture of the two, depending on the product, containing or not containing the test product, after the addition of 25 microliters of ferrous sulfate solution prepared immediately before use in water outgassed with argon ([…]). 0.25 ml of incubated mixture was withdrawn and 1.5 ml of 1% strength phosphoric acid, 0.25 ml of a solution containing 200 microliters of deferoxamine (Desferal®, Ciba Geigy) in water, 10 microliters of butylated hydroxytoluene (BHT) at a concentration of 8.7 mg/ml in ethanol and 0.5 ml of thiobarbituric acid (TBA) at a concentration of 0.6% in water were added. The mixture was heated to 100° C. for 45 minutes and cooled. 4 ml of n-butanol were added and the mixture was centrifuged for 15 minutes at 4000 rpm and the OD of the supernatant fraction was then read at 535 nm. The reaction blanks in the absence of Fe^++ were incubated under the same conditions. The percentage inhibition was calculated as follows: […]

Assay [4] relates to ferric nitrilotriacetate (NTA-Fe+++) intoxication in rats. In words: Detoxifying activity in vivo: mortality induced in rats by ferric nitrilotriacetate (NTA-Fe+++) intoxication. The conditions noted are these: 5 mg/kg i.p. 30 minutes before 15 mg/kg of poison (NTA-Fe+++, mg of iron/kg); none alive after 4 hours with poison alone. Further details: species or system Wistar male rat. Here is the method: The detoxifying activity after intoxication associated with lipid peroxidaton was tested for by measurement of the mortality induced in rats by ferric nitrilotriacetate (NTA-Fe^+++) intoxication. A solution of NTA-Fe^+++ complex was prepared immediately before use, suspended in sesame oil and injected intraperitoneally at doses of 5, 10 or 15 mg of iron/kg of body weight into non-fasted Wistar male rats weighing approximately 200 g. The survival rate of rats which received a prior injection of the test product at a dose of 5 mg/kg intraperitoneally, 30 minutes before the injection of 15 mg/kg of poison was determined. Whereas none of the animals treated with the poison alone survived after 4 hours, 20% of the animals pretreated with the product of Example 2 were still alive 15 days later.

Assay [5] relates to arachidonic acid-induced plantar oedema. In words: Arachidonic acid-induced plantar oedema (anti-inflammatory activity). It counts as in vivo, Sprague-Dawley male rat. The conditions noted are these: for Change in volume of the foot 1 hour after AA (mean ± s.e.m.): controls 0.58 ± 0.03; for % inhibition: oedema, relative to control. Here is the method:
The anti-inflammatory activity was assessed in vivo by measurement of the anti-oedematous activity in the test of arachidonic acid-induced plantar oedema described by Di Martino et al. (Agents and Actions, 1987 21 3/4 303). The experimental animals were Sprague-Dawley strain SPF male rats weighing 150 to 170 g (Iffa Credo).
This test was performed on groups of 8 male rats weighing 130 to 150 g, fasted for 16 hours. Arachidonic acid was injected under the plantar aponeurosis of one hindfoot at a dose of 0.2 mg in a volume of 0.1 ml. The volume of the foot was measured using a water plethysmometer before and 1 hour after the injection of arachidonic acid. The difference between these two volumes represented the degree of inflammation. The animals were treated with the test products or the vehicle alone at the same time as the injection of arachidonic acid. The test products were administered orally in a volume of 4 ml/kg after being suspended in 0.5% strength methyl cellulose. All the experiments were carried out with dexamethasone administered orally at a dose of 0.5 mg/kg as reference product.
The results were expressed as a change in volume of the foot 1 hour after the injection of arachidonic acid (AA) in the absence or in the presence of the test product administered at different doses. Statistical interpretation of the results was performed according to Dunnett's test (*p<[…]) or according to the Mann-Whitney test (^o p<0.05-^oo p<0.01). For each dose administered orally, the percentage inhibition of the oedema by the test product was calculated relative to the control.

In the case of `CN(C)c1ccc([C@H]2C[C@@]3(C)[C@@H](CC[C@@]3(O)C#CCN3CCN(c4cc(N5CCCC5)nc(N5CCCC5)n4)CC3)[C@@H]3CCC4=CC(=O)CCC4=C32)cc1` [Example 1, 11β-[4-(dimethylamino)-phenyl]-17α-[3-{4-[2,6-bis(1-pyrrolidinyl)-4-pyrimidinyl]-1-piperazinyl}-1-propynyl]-Δ^4,9-estradiene-17β-ol-3-one], the percentage of inhibition in assay [1] (1 × 10^-5 M) is 76 ± 0.8; in assay [1] (1 × 10^-6 M) it was 4 ± 0.6; in assay [1] (5 × 10^-6 M), 47; in assay [2] (1 × 10^-5 M), 72 ± 3; in assay [2] (1 × 10^-6 M), 14 ± 4; in assay [2] (5 × 10^-6 M), 58 ± 5. Moreover, the percentage of inhibition in assay [3] (1 × 10^-4 M) is 42.6 ± 7.5; in assay [3] (1 × 10^-5 M), 9.9 ± 6.4; in assay [3] (5 × 10^-4 M), 47.5 ± 8.8.
`CN(C)c1ccc([C@H]2C[C@@]3(C)[C@@H](CC[C@@]3(O)C#CCN3CCN(c4cc(N5CCCC5)nc(N5CCCC5)n4)CC3)[C@@H]3CCC4=CC(=O)CCC4=C32)cc1` [Example 2, 11β-[4-(dimethylamino)-phenyl]-17α-[3-{4-[2,6-bis(1-pyrrolidinyl)-4-pyrimidinyl]-1-piperazinyl}-1-propynyl]-Δ^4,9-estradien-17β-ol-3-one methane sulfonate]: the percentage of inhibition is 98.5 in assay [1] (1 × 10^-5 M); 48 ± 1 in assay [1] (1 × 10^-6 M); 91 in assay [1] (5 × 10^-6 M); 91 ± 3 in assay [2] (1 × 10^-5 M); 28 ± 3 in assay [2] (1 × 10^-6 M); 82 ± 3 in assay [2] (5 × 10^-6 M). Besides, the percentage of inhibition in assay [3] (1 × 10^-4 M) stood at 59.6 ± 4.4; in assay [3] (1 × 10^-5 M) it was 16.0 ± 5.0; in assay [3] (5 × 10^-4 M) it was 60.9 ± 3.3. Besides, the “animals still alive 15 days later (survival rate)” value in assay [4] is reported as 20%.
In general, % inhibition refers to the drop in the measured response relative to a control, in per cent. For `CCN(CC)c1ccc(N2CCN(CC#C[C@]3(O)CC[C@H]4[C@@H]5CCC6=CC(=O)CCC6=C5[C@@H](c5ccc(N(C)C)cc5)C[C@@]43C)CC2)nc1N(CC)CC` [Example 3, 11β-[4-(dimethylamino)-phenyl]-17α-[3-{4-[5,6-bis(diethylamino)-2-pyridyl]-1-piperazinyl}1-propynyl]-Δ^4,9-estradiene-17β-ol-3-one], the percentage of inhibition in assay [1] (1 × 10^-5 M) worked out at 99.9; in assay [1] (1 × 10^-6 M), 78.2 ± 0.9; in assay [1] (1 × 10^-7 M) it was 5.2 ± 1; in assay [1] (5 × 10^-6 M), 99.5; in assay [2] (1 × 10^-5 M), 97; in assay [2] (1 × 10^-6 M), 40 ± 1. Moreover, the percentage of inhibition is on record as 88 ± 2 in assay [2] (5 × 10^-6 M), 49.2 ± 2.3 in assay [3] (1 × 10^-4 M), 32.6 ± 10.1 in assay [3] (1 × 10^-5 M) and 59.1 ± 3.2 in assay [3] (5 × 10^-4 M). Also, the entries for the “Change in volume of the foot 1 hour after AA (mean ± s.e.m.)” value in assay [5] (1 mg/kg oral), in assay [5] (4 mg/kg oral) and in assay [5] (20 mg/kg oral) were 0.48 ± 0.05 cm^3, 0.43 ± 0.06 cm^3 and 0.40 ± 0.04 cm^3, respectively. The anti-inflammatory activity result in assay [5] (low doses, oral) was “significant anti-inflammatory activity”. The “% inhibition” value in assay [5] (1 mg/kg oral) is reported as -17%; in assay [5] (4 mg/kg oral), -27%; in assay [5] (20 mg/kg oral) it was -31%.
Take `CCN(CC)c1ccc(N(CC)CC)c(N2CCN(CC#C[C@]3(O)CC[C@H]4[C@@H]5CCC6=CC(=O)CCC6=C5[C@@H](c5ccc(N(C)C)cc5)C[C@@]43C)CC2)n1` [Example 4, 17α-[3-{4-[3,6-bis(diethylamino)-2-pyridyl]-1]-piperazinyl}-1-propynyl]-11β-[4-(dimethylamino)-phenyl-Δ^4,9-estadiene-17β-ol-3-one]: the percentage of inhibition in assay [1] (1 × 10^-5 M) turned out to be 99.5; in assay [1] (1 × 10^-6 M), 70 ± 2; in assay [1] (1 × 10^-7 M), 0 ± 2; in assay [1] (5 × 10^-6 M) it was 99.4; in assay [2] (1 × 10^-6 M), 48 ± 3; in assay [2] (5 × 10^-6 M) it was 85 ± 2. Further, the percentage of inhibition in assay [3] (1 × 10^-4 M) came out at 58.9 ± 10.9; in assay [3] (1 × 10^-5 M), 48.6 ± 6.2; in assay [3] (5 × 10^-4 M), 71.8 ± 10.2.
